US20100310478A1, “SUBSTITUTED BENZOQUINONES AND HYDROQUINONES IN THE TREATMENT OF PERIODONTAL DISEASES” (priority 2007, published 2010)
Values after ≈ are worked out from the molar mass of the structure shown.

What was measured:
[1] = test system: P. gingivalis NCTC 11834; test: Minimum inhibitory concentration (MIC) assay; assay type: cell-based, Porphyromonas gingivalis; details: Table 7
Experimental: (§1) P. gingivalis strains were cultured and maintained on Wilkins-Chalgren Anaerobe Medium (agar and broth) at pH 7.0; all cultures were incubated anaerobically at 37° C. for 5-7 days. This is a standard international method for quantitatively assessing the antimicrobial activity of a compound in a liquid medium. The method used a sterile 96-well microtitre plate, capable of holding about 200 μl of liquid per well. […] The culture medium was as described above. The wells were inoculated with a liquid suspension of freshly grown micro-organism and incubated under the conditions described above. After incubation, the microtitre plate was examined visually (with the aid of a light box) for cloudiness in each well, which would indicate microbial growth. The MIC value was recorded as the lowest concentration of test compound required to inhibit microbial growth, ie the lowest concentration for which the liquid in the well remained clear. The assays were conducted in duplicate (minimum) and included both negative (culture medium with no micro-organisms) and positive (culture medium plus diluting solvent plus micro-organism) controls.

[2] = test system: P. gingivalis NCTC 11834; test: Minimum bactericidal concentration (MBC) assay; assay type: cell-based, Porphyromonas gingivalis; details: Table 7
Experimental: P. gingivalis strains were cultured and maintained on Wilkins-Chalgren Anaerobe Medium (agar and broth) at pH 7.0; all cultures were incubated anaerobically at 37° C. for 5-7 days.
(§2) This assay, normally carried out after an MIC assay, determines the minimum concentration of a compound that is lethal to the micro-organism being tested.
(§3) These samples were then individually sub-cultured on antibiotic-free agar medium, under the incubation conditions described above. Following incubation they were examined visually for microbial growth.
(§4) The ratio of MIC to MBC should ideally be as close to 1 as possible.

[3] = test system: S. mutans ATCC 25175; test: Minimum bactericidal concentration (MBC) assay; assay type: cell-based, Streptococcus mutans; details: Table 8
Experimental: S. mutans was cultured and maintained on Wilkins-Chalgren Anaerobe Medium (agar and broth) at pH 7.0 supplemented with 1 g/L glucose; all cultures were incubated at 37° C. for 48 hours in an atmosphere containing 5% CO2. For the formation of biofilms in biofilm disruption assays, however, S. mutans was grown in brain-heart infusion broth supplemented with 5% sucrose.
as §2, §3, §4

[4] = test system: S. mutans ATCC 25175; test: Minimum inhibitory concentration (MIC) assay; assay type: cell-based, Streptococcus mutans; details: Table 8
Experimental: as §1, with “S. mutans was” for “P. gingivalis strains were”, “7.0 supplemented with 1 g/L glucose;” for “7.0;”, “incubated” for “incubated anaerobically”, “48 hours in an atmosphere containing 5% CO2. For the formation of biofilms in biofilm disruption assays, however, S. mutans was grown in brain-heart infusion broth supplemented with 5% sucrose.” for “5-7 days.”

SMILES | MIC [1] [mg/L] | MBC [2] [mg/L] | MIC/MBC ratio [2] | MBC [3] [mg/L] | MIC/MBC ratio [3] | MIC [4] [mg/L]
CCC(C)(C)c1cc(O)c(C(C)(C)CC)cc1O [2,5-di-t-pentyl-p-hydroquinone] | 3.9 (≈ 15.6 µM) | 3.9 (≈ 15.6 µM) | 1 | 250 (≈ 998 µM) | 0.5 | 125 (≈ 499 µM)
Cc1cc(O)c(C(C)C)cc1O [Thymohydroquinone, thymohydroquinone] | < 0.49 | 0.98 (≈ 5.9 µM) | <0.5 | 250 (≈ 1500 µM) | 0.008 | 1.95 (≈ 11.7 µM)
Oc1ccc(O)c(F)c1F [2,3-difluoro-p-hydroquinone] | 3.9 (≈ 26.7 µM) | 7.8 (≈ 53.4 µM) | 0.5 | 250 (≈ 1710 µM) | 0.5 | 125 (≈ 856 µM)
CC(C)(C)C1=CC(=O)C=CC1=O [2-t-butyl-p-benzoquinone] | < 0.49 | < 0.49 |  | 62.5 (≈ 381 µM) | 0.5 | 31.2 (≈ 190 µM)
CCCCCCc1ccc(O)cc1O [4-hexyl resorcinol] | 3.9 (≈ 20.1 µM) | 7.8 (≈ 40.1 µM) | 0.5 | 125 (≈ 643 µM) | 0.25 | 31.2 (≈ 161 µM)
CC(C)(C)c1cc(O)c(C(C)(C)C)cc1O [2,5-di-t-butyl-p-hydroquinone] | 15.6 (≈ 70.2 µM) | 15.6 (≈ 70.2 µM) | 1 | > 250 | <0.5 | 250 (≈ 1120 µM)
